Patent US10590078B2, “Sodium channel blockers” (Daewoong Pharmaceutical Co., Ltd., priority 2015, dated 2020)

Molecular target: human sodium ion channel 1.7 (hNav1.7) (Homo sapiens, UniProt Q15858)
Assay: Blocking effect against sodium ion channel Nav1.7, IonFlux16 auto patch clamp in hNav1.7 HEK293 cells
Type: cell-based
Details: hNav1.7 HEK293 cells; inhibition of peak current after 50 seconds treatment; eight concentrations; read-out: IC50

Chain of human sodium ion channel 1.7 (hNav1.7) (Q15858 whole entry): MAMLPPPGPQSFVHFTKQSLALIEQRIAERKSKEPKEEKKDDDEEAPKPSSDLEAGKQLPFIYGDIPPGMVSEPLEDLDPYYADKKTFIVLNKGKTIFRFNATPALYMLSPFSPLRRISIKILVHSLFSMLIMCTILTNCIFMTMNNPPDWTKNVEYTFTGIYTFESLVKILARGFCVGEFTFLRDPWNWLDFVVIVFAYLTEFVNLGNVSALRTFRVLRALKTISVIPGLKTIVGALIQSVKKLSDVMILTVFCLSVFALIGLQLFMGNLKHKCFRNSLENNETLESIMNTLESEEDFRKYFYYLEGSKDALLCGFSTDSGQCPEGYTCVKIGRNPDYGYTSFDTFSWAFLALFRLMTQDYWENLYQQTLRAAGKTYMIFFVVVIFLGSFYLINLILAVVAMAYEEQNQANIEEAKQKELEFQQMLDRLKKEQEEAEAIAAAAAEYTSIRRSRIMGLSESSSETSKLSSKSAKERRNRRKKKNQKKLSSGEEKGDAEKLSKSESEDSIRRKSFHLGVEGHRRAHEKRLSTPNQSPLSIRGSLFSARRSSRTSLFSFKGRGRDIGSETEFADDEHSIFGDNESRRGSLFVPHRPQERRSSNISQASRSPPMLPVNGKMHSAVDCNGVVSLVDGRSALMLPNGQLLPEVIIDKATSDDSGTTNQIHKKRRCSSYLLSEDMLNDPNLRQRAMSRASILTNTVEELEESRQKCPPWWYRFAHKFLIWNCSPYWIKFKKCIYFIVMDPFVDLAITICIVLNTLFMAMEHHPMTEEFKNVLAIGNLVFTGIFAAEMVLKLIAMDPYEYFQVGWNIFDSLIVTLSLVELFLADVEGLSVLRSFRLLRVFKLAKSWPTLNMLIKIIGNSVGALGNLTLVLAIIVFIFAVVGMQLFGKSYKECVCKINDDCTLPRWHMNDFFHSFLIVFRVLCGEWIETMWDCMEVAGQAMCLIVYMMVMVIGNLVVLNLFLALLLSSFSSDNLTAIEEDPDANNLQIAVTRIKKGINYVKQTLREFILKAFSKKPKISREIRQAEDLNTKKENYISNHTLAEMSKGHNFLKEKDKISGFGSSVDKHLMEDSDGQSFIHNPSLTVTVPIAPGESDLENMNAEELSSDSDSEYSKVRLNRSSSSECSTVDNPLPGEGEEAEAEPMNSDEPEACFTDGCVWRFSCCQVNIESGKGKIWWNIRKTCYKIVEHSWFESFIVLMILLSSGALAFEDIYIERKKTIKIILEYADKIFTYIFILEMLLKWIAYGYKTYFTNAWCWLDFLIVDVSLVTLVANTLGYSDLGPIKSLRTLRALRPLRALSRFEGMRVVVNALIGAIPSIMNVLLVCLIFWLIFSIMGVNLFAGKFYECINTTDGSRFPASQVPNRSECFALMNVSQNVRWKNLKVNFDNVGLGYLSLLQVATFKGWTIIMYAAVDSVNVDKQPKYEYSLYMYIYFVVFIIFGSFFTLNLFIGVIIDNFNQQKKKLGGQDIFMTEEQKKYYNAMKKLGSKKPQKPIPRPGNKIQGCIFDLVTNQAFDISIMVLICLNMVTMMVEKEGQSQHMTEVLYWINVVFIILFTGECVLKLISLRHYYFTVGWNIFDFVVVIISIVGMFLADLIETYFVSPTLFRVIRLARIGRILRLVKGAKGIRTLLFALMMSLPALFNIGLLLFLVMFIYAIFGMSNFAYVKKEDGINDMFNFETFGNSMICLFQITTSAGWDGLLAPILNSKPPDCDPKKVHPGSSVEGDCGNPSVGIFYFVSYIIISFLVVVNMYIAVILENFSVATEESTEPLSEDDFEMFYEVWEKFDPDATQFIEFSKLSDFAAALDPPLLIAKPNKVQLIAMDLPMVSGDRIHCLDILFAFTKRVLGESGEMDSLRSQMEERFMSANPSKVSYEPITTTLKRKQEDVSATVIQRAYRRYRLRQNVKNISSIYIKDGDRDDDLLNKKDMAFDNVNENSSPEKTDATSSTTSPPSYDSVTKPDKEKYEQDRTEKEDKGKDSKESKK

Row | IC50 | SMILES
1 | 0.476 µM | CS(=O)(=O)NC(=O)c1cc(Cl)c(-n2nc(Cl)c3cc(F)ccc32)cc1F [Example 17, 5-chloro-4-(3-chloro-5-fluoro-1H-indazol-1-yl)-2-fluoro-N-(methylsulfonyl)benzamide]
2 | 0.913 µM | CS(=O)(=O)NC(=O)c1cc(Cl)c(-n2nc(-c3cccnc3)c3cc(Cl)ccc32)cc1F [Example 50, 5-chloro-4-(5-chloro-3-(pyridin-3-yl)-1H-indazol-1-yl)-2-fluoro-N-(methylsulfonyl)benzamide]
3 | 7.71 µM | CS(=O)(=O)NC(=O)c1cc(Cl)c(-n2nc(Cl)c3cc(Nc4ccccc4)ccc32)cc1F [Example 27, 5-chloro-4-(3-chloro-5-(phenylamino)-1H-indazol-1-yl)-2-fluoro-N-(methylsulfonyl)benzamide]
4 | 0.21 µM | Cc1ccccc1-c1nn(-c2cc(F)c(C(=O)NS(C)(=O)=O)cc2Cl)c2ccccc12 [Example 173, 5-chloro-2-fluoro-N-(methylsulfonyl)-4-(3-(o-tolyl)-1H-indazol-1-yl)benzamide]
5 | 0.18 µM | CS(=O)(=O)NC(=O)c1cc(Cl)c(-n2cc(Cl)c3cc(-c4ccc(C(F)(F)F)cc4)cnc32)cc1F [Example 261, 5-chloro-4-(3-chloro-5-(4-(trifluoromethyl)phenyl)-1H-pyrrolo[2,3-b]pyridin-1-yl)-2-fluoro-N-(methylsulfonyl)benzamide]
6 | 0.1 µM | CS(=O)(=O)NC(=O)c1cc(Cl)c(-n2cc(-c3ccccc3C(F)(F)F)c3cc(Cl)cnc32)cc1F [Example 193, 5-chloro-4-(5-chloro-3-(2-(trifluoromethyl)phenyl)-1H-pyrrolo[2,3-b]pyridin-1-yl)-2-fluoro-N-(methylsulfonyl)benzamide]
7 | 0.83 µM | CS(=O)(=O)NC(=O)c1cc(Cl)c(-n2nc(Cl)c3cc(-c4ccc(Cl)cc4)ccc32)cc1F [Example 255, 5-chloro-4-(3-chloro-5-(4-chlorophenyl)-1H-indazol-1-yl)-2-fluoro-N-(methylsulfonyl)benzamide]
8 | 0.164 µM | CS(=O)(=O)NC(=O)c1cc(Cl)c(-n2nc(-c3ccccc3)c3cc(-c4ccccc4)ccc32)cc1F [Example 264, 5-chloro-4-(3,5-diphenyl-1H-indazol-1-yl)-2-fluoro-N-(methylsulfonyl)benzamide]
9 | 0.13 µM | CS(=O)(=O)NC(=O)c1cc(Cl)c(-n2nc(-c3c(F)cccc3Cl)c3cc(Cl)ccc32)cc1F [Example 78, 5-chloro-4-(5-chloro-3-(2-chloro-6-fluorophenyl)-1H-indazol-1-yl)-2-fluoro-N-(methylsulfonyl)benzamide]
10 | 5.29 µM | COc1ccccc1-c1nn(-c2ccc(C(=O)NS(C)(=O)=O)cc2C#N)c2ccc(Cl)cc12 [Example 92, 4-(5-chloro-3-(2-methoxyphenyl)-1H-indazol-1-yl)-3-cyano-N-(methylsulfonyl)benzamide]
11 | 0.187 µM | CS(=O)(=O)NC(=O)c1cc(Cl)c(-n2nc(-c3cncc(Cl)c3)c3cc(Cl)ccc32)cc1F [Example 51, 5-chloro-4-(5-chloro-3-(5-chloropyridin-3-yl)-1H-indazol-1-yl)-2-fluoro-N-(methylsulfonyl)benzamide]
12 | 0.187 µM | CS(=O)(=O)NC(=O)c1cc(Cl)c(-n2cc(Cl)c3c(OCc4ccccc4)cccc32)cc1F [Example 270, 4-(4-(benzyloxy)-3-chloro-1H-indol-1-yl)-5-chloro-2-fluoro-N-(methylsulfonyl)benzamide]
13 | > 10 µM | O=S(=O)(Nc1cscn1)c1cc(Cl)c(-n2nc(Cl)c3cc(-c4ccccc4)ccc32)cc1F [Example 276, 5-chloro-4-(3-chloro-5-phenyl-1H-indazol-1-yl)-2-fluoro-N-(thiazol-4-yl)benzenesulfonamide]
14 | 1.65 µM | Cn1nccc1-c1nn(-c2cc(F)c(S(=O)(=O)Nc3cscn3)cc2Cl)c2ccc(Cl)cc12 [Example 282, 5-chloro-4-(5-chloro-3-(1-methyl-1H-pyrazol-5-yl)-1H-indazol-1-yl)-2-fluoro-N-(thiazol-4-yl)benzenesulfonamide]
15 | > 10 µM | CS(=O)(=O)NC(=O)c1cc(Cl)c(-n2nc(-c3ccccc3C#N)c3cc(Cl)ccc32)cc1F [Example 60, 5-chloro-4-(5-chloro-3-(2-cyanophenyl)-1H-indazol-1-yl)-2-fluoro-N-(methylsulfonyl)benzamide]
16 | 11.2 µM | CS(=O)(=O)NC(=O)c1cc(Cl)c(-n2nc(-c3cc[nH]n3)c3cc(Cl)ccc32)cc1F [Example 90, 5-chloro-4-(5-chloro-3-(1H-pyrazol-3-yl)-1H-indazol-1-yl)-2-fluoro-N-(methylsulfonyl)benzamide]
17 | 1.34 µM | CS(=O)(=O)NC(=O)c1ccc(-n2nc(-c3ccc(C(F)(F)F)cc3)c3cc(Cl)ccc32)c(C#N)c1 [Example 99, 4-(5-chloro-3-(4-(trifluoromethyl)phenyl)-1H-indazol-1-yl)-3-cyano-N-(methylsulfonyl)benzamide]
18 | 0.24 µM | CS(=O)(=O)NC(=O)c1cc(Cl)c(-n2nc(Cl)c3cc(-c4ccccc4Cl)ccc32)cc1F [Example 252, 5-chloro-4-(3-chloro-5-(2-chlorophenyl)-1H-indazol-1-yl)-2-fluoro-N-(methylsulfonyl)benzamide]

Row | IC50 | SMILES
19 | 0.36 µM | CS(=O)(=O)NC(=O)c1cc(Cl)c(-n2cc(Cl)c3cc(-c4ccc(F)cc4)cnc32)cc1F [Example 257, 5-chloro-4-(3-chloro-5-(4-fluorophenyl)-1H-pyrrolo[2,3-b]pyridin-1-yl)-2-fluoro-N-(methylsulfonyl)benzamide]
20 | > 10 µM | CS(=O)(=O)NC(=O)c1ccc(-n2nc(-c3ccc(C#N)cc3)c3cc(Cl)ccc32)c(C#N)c1 [Example 96, 4-(5-chloro-3-(4-cyanophenyl)-1H-indazol-1-yl)-3-cyano-N-(methylsulfonyl)benzamide]
21 | 0.142 µM | CS(=O)(=O)NC(=O)c1cc(Cl)c(-n2cc(Cl)c3cc(OCc4ccccc4)ccc32)cc1F [Example 269, 4-(5-(benzyloxy)-3-chloro-1H-indol-1-yl)-5-chloro-2-fluoro-N-(methylsulfonyl)benzamide]
22 | 0.365 µM | CS(=O)(=O)NC(=O)c1cc(Cl)c(-n2nc(Cl)c3cc([N+](=O)[O-])ccc32)cc1F [Example 23, 5-chloro-4-(3-chloro-5-nitro-1H-indazol-1-yl)-2-fluoro-N-(methylsulfonyl)benzamide]
23 | 0.06 µM | Cc1ccccc1-c1nn(-c2cc(F)c(C(=O)NS(C)(=O)=O)cc2Cl)c2ccc(F)cc12 [Example 147, 5-chloro-2-fluoro-4-(5-fluoro-3-(o-tolyl)-1H-indazol-1-yl)-N-(methylsulfonyl)benzamide]
24 | 1.05 µM | CS(=O)(=O)NC(=O)c1cc(Cl)c(-n2nc(Cl)c3cc(-c4ccc(F)nc4F)ccc32)cc1F [Example 246, 5-chloro-4-(3-chloro-5-(2,6-difluoropyridin-3-yl)-1H-indazol-1-yl)-2-fluoro-N-(methylsulfonyl)benzamide]
25 | 0.21 µM | CS(=O)(=O)NC(=O)c1cc(Cl)c(-n2nc(-c3cc(F)ccc3F)c3cc(F)ccc32)cc1F [Example 160, 5-chloro-4-(3-(2,5-difluorophenyl)-5-fluoro-1H-indazol-1-yl)-2-fluoro-N-(methylsulfonyl)benzamide]
26 | 0.587 µM | CS(=O)(=O)NC(=O)c1cc(Cl)c(-n2nc(Cl)c3cc(C(F)(F)F)ccc32)cc1F [Example 18, 5-chloro-4-(3-chloro-5-(trifluoromethyl)-1H-indazol-1-yl)-2-fluoro-N-(methylsulfonyl)benzamide]
27 | 0.789 µM | CS(=O)(=O)NC(=O)c1cc(F)c(-n2nc(-c3ccc(F)cc3)c3cc(Cl)ccc32)cc1Cl [Example 112, 2-chloro-4-(5-chloro-3-(4-fluorophenyl)-1H-indazol-1-yl)-5-fluoro-N-(methylsulfonyl)benzamide]
28 | > 10 µM | CS(=O)(=O)NC(=O)c1cc(Cl)c(-n2cc(Cl)c3c(Cl)c(O)ccc32)cc1F [Example 267, 5-chloro-4-(3,4-dichloro-5-hydroxy-1H-indol-1-yl)-2-fluoro-N-(methylsulfonyl)benzamide]
29 | 0.39 µM | CS(=O)(=O)NC(=O)c1cc(Cl)c(-n2nc(-c3ccc(F)cc3)c3ccccc32)cc1F [Example 179, 5-chloro-2-fluoro-4-(3-(4-fluorophenyl)-1H-indazol-1-yl)-N-(methylsulfonyl)benzamide]
30 | 0.554 µM | CS(=O)(=O)NC(=O)c1cc(Cl)c(-n2nc(-c3ccc(C#N)cc3)c3cc(Cl)ccc32)cc1F [Example 62, 5-chloro-4-(5-chloro-3-(4-cyanophenyl)-1H-indazol-1-yl)-2-fluoro-N-(methylsulfonyl)benzamide]
31 | > 10 µM | Cn1cc(-c2nn(-c3cc(F)c(C(=O)NS(C)(=O)=O)cc3Cl)c3ccc(Cl)cc23)cn1 [Example 88, 5-chloro-4-(5-chloro-3-(1-methyl-1H-pyrazol-4-yl)-1H-indazol-1-yl)-2-fluoro-N-(methylsulfonyl)benzamide]
32 | 0.13 µM | COc1ccc(-c2cn(-c3cc(F)c(C(=O)NS(C)(=O)=O)cc3Cl)c3ncc(Cl)cc23)cc1 [Example 196, 5-chloro-4-(5-chloro-3-(4-methoxyphenyl)-1H-pyrrolo[2,3-b]pyridin-1-yl)-2-fluoro-N-(methylsulfonyl)benzamide]
33 | > 10 µM | CS(=O)(=O)NC(=O)c1ccc(-n2nc(Cl)c3cc(O)ccc32)cc1 [Example 12, 4-(3-chloro-5-hydroxy-1H-indazol-1-yl)-N-(methylsulfonyl)benzamide]
34 | 0.12 µM | CS(=O)(=O)NC(=O)c1cc(Cl)c(-n2nc(-c3ccccc3F)c3cc(F)ccc32)cc1F [Example 143, 5-chloro-2-fluoro-4-(5-fluoro-3-(2-fluorophenyl)-1H-indazol-1-yl)-N-(methylsulfonyl)benzamide]
35 | 0.21 µM | CS(=O)(=O)NC(=O)c1cc(Cl)c(-n2cc(Cl)c3cc(-c4cccc(F)c4)cnc32)cc1F [Example 262, 5-chloro-4-(3-chloro-5-(3-fluorophenyl)-1H-pyrrolo[2,3-b]pyridin-1-yl)-2-fluoro-N-(methylsulfonyl)benzamide]
36 | 0.53 µM | CS(=O)(=O)NC(=O)c1cc(Cl)c(-n2cc(-c3cccc(C(F)(F)F)c3)c3cccnc32)cc1F [Example 217, 5-chloro-2-fluoro-N-(methylsulfonyl)-4-(3-(3-(trifluoromethyl)phenyl)-1H-pyrrolo[2,3-b]pyridin-1-yl)benzamide]
